Laboratory results as given in ChEMBL document CHEMBL5465560, “Selectivity Literature for EUbOPEN Chemogenomic Library” (2024).

How the values were obtained:
[1] = biological target: Tyrosine-protein kinase Blk (Homo sapiens) (UniProt P51451); experiment: Selectivity interaction (SelectScreen kinase panel (Invitrogen)) EUB0000133b BLK; details: at 1 µM
[2] = biological target: Calcium/calmodulin-dependent protein kinase type II subunit alpha (Homo sapiens, UniProt Q9UQM7); experiment: Selectivity interaction (SelectScreen kinase panel (Invitrogen)) EUB0000133b CAMK2A; details: at 1 µM
Chain of Calcium/calmodulin-dependent protein kinase type II subunit alpha (Q9UQM7 whole entry): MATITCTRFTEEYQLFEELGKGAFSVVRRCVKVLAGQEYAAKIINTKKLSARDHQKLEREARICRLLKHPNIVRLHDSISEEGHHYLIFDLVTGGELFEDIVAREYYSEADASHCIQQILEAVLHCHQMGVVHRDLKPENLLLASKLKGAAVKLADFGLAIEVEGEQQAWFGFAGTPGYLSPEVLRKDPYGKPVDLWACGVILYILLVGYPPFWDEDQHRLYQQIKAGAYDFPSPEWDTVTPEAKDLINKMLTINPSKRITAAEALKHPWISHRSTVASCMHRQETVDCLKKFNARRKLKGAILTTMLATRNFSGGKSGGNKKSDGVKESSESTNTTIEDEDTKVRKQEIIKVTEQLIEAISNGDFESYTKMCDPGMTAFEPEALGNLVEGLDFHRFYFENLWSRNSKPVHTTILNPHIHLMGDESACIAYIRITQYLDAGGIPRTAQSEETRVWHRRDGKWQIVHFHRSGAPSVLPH

[3] = biological target: Ephrin type-A receptor 2 (Homo sapiens) (UniProt P29317); experiment: Selectivity interaction (SelectScreen kinase panel (Invitrogen)) EUB0000133b EPHA2; details: at 1 µM
[4] = biological target: Ephrin type-A receptor 4 (Homo sapiens, UniProt P54764); experiment: Selectivity interaction (SelectScreen kinase panel (Invitrogen)) EUB0000133b EPHA4; details: at 1 µM
[5] = biological target: Fibroblast growth factor receptor 2 (Homo sapiens) (UniProt P21802); experiment: Selectivity interaction (SelectScreen kinase panel (Invitrogen)) EUB0000133b FGFR2; details: at 1 µM
[6] = biological target: Tyrosine-protein kinase Fgr (Homo sapiens) (UniProt P09769); experiment: Selectivity interaction (SelectScreen kinase panel (Invitrogen)) EUB0000133b FGR; details: at 1 µM
[7] = biological target: MAP kinase-activated protein kinase 3 (Homo sapiens) (UniProt Q16644); experiment: Selectivity interaction (SelectScreen kinase panel (Invitrogen)) EUB0000133b MAPKAPK3; details: at 1 µM
Chain of MAP kinase-activated protein kinase 3 (Homo sapiens) (Q16644 whole entry, looked up): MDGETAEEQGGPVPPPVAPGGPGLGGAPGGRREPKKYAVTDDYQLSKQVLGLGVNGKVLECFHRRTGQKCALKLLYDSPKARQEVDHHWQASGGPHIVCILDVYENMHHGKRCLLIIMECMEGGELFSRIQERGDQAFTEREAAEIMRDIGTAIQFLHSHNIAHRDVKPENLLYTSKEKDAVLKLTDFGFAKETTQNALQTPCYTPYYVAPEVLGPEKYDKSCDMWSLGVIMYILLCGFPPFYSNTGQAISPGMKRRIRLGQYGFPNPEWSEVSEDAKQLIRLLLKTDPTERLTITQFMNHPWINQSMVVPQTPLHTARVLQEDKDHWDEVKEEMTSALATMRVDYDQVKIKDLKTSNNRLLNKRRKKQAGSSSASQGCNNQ

[8] = biological target: NT-3 growth factor receptor (Homo sapiens, UniProt Q16288); experiment: Selectivity interaction (SelectScreen kinase panel (Invitrogen)) EUB0000133b NTRK3; details: at 1 µM
[9] = biological target: Receptor-type tyrosine-protein kinase FLT3 (Homo sapiens) (UniProt P36888); experiment: Selectivity interaction (Ambit kinase binding assay panel) EUB0000608a FLT3; details: at 10 µM
[10] = biological target: T1, Cyclin-G-associated kinase (Homo sapiens) (UniProt O14976); experiment: Selectivity interaction (Ambit kinase binding assay panel) EUB0000608a GAK; details: at 10 µM
T1 sequence (whole entry): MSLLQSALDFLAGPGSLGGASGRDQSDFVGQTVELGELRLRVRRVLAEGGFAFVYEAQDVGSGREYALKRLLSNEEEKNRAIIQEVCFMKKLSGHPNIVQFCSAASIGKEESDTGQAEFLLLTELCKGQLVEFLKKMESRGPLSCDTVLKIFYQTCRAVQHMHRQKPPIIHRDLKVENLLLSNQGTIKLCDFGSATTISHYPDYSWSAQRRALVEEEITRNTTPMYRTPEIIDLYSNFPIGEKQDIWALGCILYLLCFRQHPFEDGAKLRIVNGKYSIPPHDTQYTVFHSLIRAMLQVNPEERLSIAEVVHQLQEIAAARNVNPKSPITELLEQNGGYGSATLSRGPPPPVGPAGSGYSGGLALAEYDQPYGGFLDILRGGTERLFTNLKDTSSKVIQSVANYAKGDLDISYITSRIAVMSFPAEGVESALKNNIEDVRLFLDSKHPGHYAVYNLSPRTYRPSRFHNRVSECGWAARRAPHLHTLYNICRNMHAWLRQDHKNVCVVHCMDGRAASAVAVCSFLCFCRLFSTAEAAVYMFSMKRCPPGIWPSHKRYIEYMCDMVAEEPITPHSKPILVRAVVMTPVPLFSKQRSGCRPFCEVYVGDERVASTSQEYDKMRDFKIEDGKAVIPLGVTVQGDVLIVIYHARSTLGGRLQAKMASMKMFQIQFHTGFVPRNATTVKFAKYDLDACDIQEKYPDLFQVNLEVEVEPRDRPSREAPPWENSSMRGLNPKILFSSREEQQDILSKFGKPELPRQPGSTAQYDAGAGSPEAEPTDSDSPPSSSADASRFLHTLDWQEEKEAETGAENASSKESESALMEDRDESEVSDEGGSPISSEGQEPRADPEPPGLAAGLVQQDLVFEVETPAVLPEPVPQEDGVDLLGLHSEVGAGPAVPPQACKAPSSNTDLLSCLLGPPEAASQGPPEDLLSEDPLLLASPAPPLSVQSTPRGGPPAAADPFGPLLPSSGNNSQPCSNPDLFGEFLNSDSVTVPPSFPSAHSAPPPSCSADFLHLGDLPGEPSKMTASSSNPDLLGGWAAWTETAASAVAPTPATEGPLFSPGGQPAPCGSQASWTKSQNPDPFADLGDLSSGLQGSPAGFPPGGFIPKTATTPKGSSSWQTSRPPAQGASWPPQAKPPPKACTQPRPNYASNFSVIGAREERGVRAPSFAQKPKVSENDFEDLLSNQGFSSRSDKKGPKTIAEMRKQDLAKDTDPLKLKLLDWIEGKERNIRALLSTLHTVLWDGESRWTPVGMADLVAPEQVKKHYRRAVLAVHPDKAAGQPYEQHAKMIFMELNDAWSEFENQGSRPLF

[11] = biological target: Serine/threonine-protein kinase PLK3 (Homo sapiens, UniProt Q9H4B4); experiment: Selectivity interaction (Ambit kinase binding assay panel) EUB0000608a PLK3; details: at 10 µM
[12] = biological target: T2, Serine/threonine-protein kinase PLK4 (Homo sapiens) (UniProt O00444); experiment: Selectivity interaction (Ambit kinase binding assay panel) EUB0000608a PLK4; details: at 10 µM
T2 sequence (whole entry): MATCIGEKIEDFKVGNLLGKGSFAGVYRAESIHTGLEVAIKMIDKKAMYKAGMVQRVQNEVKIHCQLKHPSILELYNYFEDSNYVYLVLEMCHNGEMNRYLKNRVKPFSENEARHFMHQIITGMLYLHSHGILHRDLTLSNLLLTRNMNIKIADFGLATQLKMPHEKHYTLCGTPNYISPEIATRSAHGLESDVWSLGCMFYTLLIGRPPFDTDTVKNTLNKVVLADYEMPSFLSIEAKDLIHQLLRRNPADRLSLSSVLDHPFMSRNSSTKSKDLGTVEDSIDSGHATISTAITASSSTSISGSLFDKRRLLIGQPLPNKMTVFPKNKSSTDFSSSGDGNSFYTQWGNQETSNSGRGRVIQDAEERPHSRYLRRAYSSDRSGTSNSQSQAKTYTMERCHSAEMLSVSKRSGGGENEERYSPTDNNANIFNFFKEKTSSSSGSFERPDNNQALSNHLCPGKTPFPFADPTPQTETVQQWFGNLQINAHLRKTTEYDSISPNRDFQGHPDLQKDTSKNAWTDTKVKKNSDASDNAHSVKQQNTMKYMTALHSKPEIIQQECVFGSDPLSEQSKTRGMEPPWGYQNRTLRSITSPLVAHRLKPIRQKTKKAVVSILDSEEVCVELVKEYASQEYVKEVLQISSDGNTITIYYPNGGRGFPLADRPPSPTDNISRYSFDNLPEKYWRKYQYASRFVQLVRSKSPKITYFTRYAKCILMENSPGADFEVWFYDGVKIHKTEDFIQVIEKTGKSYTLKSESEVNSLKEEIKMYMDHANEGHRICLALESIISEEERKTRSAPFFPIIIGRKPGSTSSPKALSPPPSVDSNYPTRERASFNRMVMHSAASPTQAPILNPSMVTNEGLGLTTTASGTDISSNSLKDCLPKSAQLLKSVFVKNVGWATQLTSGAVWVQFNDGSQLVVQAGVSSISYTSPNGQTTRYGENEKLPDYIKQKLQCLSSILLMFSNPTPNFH

[13] = biological target: Focal adhesion kinase 1 (Homo sapiens, UniProt Q05397); experiment: Selectivity interaction (Ambit kinase binding assay panel) EUB0000608a PTK2; details: at 10 µM
[14] = biological target: T3, Dual specificity protein kinase TTK (Homo sapiens) (UniProt P33981); experiment: Selectivity interaction (Ambit kinase binding assay panel) EUB0000608a TTK; details: at 10 µM
T3 sequence (whole entry): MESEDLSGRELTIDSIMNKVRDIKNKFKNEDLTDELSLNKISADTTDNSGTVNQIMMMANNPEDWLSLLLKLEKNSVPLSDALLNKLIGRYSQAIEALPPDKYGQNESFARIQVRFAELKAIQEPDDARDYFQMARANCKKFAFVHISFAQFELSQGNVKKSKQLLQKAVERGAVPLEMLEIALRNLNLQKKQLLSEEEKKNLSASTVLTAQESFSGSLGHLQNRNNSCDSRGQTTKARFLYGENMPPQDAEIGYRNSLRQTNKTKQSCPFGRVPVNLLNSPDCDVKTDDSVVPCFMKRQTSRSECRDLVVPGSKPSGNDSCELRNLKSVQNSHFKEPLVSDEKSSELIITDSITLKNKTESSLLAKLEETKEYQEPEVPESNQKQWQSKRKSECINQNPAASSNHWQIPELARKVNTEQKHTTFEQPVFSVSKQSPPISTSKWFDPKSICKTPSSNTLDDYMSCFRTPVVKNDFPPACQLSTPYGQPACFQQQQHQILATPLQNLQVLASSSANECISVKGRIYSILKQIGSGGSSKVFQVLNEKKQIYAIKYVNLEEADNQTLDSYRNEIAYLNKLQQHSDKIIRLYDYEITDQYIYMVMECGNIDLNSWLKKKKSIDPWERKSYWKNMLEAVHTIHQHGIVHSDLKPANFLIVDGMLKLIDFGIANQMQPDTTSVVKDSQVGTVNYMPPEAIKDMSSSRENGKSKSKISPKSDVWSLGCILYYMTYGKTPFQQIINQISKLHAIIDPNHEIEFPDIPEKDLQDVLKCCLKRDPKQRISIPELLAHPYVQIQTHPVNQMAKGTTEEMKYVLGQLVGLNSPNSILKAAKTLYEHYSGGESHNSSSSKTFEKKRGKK

[15] = biological target: Vascular endothelial growth factor receptor 1 (Homo sapiens) (UniProt P17948); details: at 1 µM
[16] = biological target: Vascular endothelial growth factor receptor 3 (Homo sapiens, UniProt P35916); details: at 1 µM
Chain of Vascular endothelial growth factor receptor 3 (P35916 whole entry): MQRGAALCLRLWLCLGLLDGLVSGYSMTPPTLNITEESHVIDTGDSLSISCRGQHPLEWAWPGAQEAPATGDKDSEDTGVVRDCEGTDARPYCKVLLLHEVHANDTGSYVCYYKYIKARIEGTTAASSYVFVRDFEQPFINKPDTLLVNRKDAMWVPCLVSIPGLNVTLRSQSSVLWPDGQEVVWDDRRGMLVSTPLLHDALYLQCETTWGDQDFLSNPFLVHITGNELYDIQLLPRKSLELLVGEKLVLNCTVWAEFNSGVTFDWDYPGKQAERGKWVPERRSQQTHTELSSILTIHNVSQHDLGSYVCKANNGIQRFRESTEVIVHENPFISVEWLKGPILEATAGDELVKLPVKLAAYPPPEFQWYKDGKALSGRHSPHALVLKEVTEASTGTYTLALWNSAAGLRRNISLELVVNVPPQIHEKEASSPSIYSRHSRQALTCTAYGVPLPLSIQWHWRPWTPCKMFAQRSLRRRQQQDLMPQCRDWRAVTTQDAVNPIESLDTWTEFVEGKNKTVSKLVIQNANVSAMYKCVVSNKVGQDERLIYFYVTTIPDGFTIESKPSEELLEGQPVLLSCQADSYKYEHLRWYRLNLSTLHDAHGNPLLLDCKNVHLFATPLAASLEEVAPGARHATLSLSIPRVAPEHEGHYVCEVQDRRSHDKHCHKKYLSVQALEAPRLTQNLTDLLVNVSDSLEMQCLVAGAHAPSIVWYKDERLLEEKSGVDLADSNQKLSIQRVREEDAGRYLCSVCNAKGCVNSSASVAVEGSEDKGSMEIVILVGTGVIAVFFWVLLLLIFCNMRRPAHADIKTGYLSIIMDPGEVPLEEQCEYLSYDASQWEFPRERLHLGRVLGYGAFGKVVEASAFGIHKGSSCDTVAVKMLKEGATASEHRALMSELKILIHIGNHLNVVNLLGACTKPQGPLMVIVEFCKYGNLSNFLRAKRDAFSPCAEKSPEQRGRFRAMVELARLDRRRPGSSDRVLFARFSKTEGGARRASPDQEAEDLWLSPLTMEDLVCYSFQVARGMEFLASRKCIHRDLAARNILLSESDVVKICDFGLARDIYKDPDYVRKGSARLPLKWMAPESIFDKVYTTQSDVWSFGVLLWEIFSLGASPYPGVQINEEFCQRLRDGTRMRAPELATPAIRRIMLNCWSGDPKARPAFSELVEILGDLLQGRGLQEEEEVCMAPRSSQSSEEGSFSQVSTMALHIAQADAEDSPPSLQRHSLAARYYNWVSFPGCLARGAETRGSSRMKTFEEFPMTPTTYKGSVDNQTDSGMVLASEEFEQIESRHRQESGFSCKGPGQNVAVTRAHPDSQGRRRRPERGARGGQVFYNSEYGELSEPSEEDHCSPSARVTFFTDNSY

[17] = biological target: Vascular endothelial growth factor receptor 2 (Homo sapiens, UniProt P35968); details: at 1 µM
[18] = biological target: Mitogen-activated protein kinase kinase kinase kinase 4 (Homo sapiens, UniProt O95819); details: at 1 µM
Chain of Mitogen-activated protein kinase kinase kinase kinase 4 (O95819 2-1239 limits assumed): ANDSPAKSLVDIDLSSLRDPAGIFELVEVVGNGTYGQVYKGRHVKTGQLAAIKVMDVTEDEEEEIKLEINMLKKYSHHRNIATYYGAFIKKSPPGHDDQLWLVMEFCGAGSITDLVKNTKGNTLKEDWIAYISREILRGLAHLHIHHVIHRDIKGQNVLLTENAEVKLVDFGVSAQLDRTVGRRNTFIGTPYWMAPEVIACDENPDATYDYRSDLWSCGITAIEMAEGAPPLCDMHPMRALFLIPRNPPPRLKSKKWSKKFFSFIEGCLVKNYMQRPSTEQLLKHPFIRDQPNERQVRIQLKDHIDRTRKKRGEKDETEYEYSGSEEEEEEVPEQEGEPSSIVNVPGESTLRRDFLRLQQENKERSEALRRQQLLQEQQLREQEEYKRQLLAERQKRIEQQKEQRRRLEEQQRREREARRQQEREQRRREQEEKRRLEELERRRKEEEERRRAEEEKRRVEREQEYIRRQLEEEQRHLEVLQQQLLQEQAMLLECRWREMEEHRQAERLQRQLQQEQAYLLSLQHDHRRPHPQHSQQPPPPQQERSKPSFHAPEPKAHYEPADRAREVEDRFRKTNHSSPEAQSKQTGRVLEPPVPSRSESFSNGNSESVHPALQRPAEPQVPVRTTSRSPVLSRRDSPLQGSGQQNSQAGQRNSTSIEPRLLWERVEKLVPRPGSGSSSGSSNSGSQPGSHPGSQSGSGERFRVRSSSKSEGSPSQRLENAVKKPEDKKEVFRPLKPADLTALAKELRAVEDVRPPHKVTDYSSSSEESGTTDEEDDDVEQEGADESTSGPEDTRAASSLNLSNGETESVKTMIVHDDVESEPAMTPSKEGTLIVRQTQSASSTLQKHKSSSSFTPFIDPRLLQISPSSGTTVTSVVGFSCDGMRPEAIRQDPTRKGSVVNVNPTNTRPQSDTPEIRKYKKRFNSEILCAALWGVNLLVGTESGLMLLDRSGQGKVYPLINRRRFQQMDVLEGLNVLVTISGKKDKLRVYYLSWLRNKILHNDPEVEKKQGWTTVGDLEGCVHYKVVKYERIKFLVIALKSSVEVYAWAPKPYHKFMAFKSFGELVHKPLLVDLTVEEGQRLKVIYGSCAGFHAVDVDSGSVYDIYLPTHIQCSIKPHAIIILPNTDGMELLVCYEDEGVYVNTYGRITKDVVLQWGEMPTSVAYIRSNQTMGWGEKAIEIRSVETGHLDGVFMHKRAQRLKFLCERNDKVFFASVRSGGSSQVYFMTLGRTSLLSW

[19] = biological target: Misshapen-like kinase 1 (Homo sapiens, UniProt Q8N4C8); details: at 1 µM
[20] = system: Platelet-derived growth factor receptor alpha (Homo sapiens), P16234 [V561D]; details: at 1 µM
Chain of Platelet-derived growth factor receptor alpha (Homo sapiens), P16234 [V561D] (P16234 whole entry V561D): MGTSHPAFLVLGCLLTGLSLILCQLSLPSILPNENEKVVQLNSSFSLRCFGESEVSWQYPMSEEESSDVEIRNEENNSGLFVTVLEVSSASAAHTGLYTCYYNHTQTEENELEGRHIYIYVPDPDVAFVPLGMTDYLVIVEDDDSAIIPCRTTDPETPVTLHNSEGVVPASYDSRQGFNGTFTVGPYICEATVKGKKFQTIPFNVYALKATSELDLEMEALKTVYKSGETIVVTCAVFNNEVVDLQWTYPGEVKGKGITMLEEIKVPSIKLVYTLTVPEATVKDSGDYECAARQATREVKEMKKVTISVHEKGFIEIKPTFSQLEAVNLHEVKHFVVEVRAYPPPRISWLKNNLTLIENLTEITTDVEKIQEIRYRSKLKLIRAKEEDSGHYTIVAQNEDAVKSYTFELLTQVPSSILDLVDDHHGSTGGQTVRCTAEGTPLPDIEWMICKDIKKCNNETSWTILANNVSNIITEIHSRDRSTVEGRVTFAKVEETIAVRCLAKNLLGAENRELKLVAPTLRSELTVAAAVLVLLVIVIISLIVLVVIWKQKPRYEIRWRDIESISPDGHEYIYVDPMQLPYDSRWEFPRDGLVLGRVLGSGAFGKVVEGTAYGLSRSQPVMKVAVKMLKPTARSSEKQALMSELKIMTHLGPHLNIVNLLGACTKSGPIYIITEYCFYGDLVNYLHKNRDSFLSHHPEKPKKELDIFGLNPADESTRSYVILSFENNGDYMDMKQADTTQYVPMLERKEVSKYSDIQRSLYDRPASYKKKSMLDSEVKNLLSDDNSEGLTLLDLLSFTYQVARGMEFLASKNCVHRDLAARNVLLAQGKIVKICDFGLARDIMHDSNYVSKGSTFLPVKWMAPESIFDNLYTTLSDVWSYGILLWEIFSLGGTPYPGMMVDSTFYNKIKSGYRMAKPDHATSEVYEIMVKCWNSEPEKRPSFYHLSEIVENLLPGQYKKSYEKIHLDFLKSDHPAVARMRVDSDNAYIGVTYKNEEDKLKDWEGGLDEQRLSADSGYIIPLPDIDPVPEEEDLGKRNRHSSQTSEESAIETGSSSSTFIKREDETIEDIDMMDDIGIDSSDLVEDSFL

[21] = biological target: Platelet-derived growth factor receptor alpha (Homo sapiens, UniProt P16234); details: at 1 µM
Chain of Platelet-derived growth factor receptor alpha (P16234 whole entry): as the sequence (P16234 whole entry V561D) above, with D561V counted along it

[22] = biological target: Receptor-interacting serine/threonine-protein kinase 2 (Homo sapiens, UniProt O43353); details: at 1 µM
[23] = biological target: RAF proto-oncogene serine/threonine-protein kinase (Homo sapiens) (UniProt P04049); details: at 1 µM

Chain of Tyrosine-protein kinase Blk (Homo sapiens) (P51451 2-505 limits assumed): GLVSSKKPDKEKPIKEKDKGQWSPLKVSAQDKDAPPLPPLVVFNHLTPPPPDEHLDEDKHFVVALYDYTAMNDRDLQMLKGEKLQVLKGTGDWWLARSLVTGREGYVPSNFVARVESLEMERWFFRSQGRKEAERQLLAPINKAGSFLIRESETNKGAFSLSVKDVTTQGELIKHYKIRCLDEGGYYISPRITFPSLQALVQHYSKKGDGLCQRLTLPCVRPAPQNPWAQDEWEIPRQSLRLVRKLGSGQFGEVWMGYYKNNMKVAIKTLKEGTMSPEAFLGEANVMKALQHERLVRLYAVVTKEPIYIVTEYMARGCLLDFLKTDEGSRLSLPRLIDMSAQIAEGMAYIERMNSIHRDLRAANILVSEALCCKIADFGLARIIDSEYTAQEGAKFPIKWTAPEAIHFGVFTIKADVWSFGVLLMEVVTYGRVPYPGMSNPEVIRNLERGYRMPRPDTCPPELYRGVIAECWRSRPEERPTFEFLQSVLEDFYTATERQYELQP

COc1cc(Nc2ncc3c(n2)-c2ccc(Cl)cc2C(c2c(F)cccc2OC)=NC3)ccc1C(=O)O
% of inhibition [1]: 92% | % of inhibition [2]: 95% | % of inhibition [3]: 100% | % of inhibition [4]: 94% | % of inhibition [5]: 90% | % of inhibition [6]: 97% | % of inhibition [7]: 91% | % of inhibition [8]: 91%

CCOc1cc(N2CCC(O)CC2)ccc1Nc1ncc2c(n1)N(C1CCCC1)CCC(=O)N2C
% of control [9]: 0% | % of control [10]: 2% | % of control [11]: 15% | % of control [12]: 27% | % of control [13]: 24% | % of control [14]: 3.2%

Cc1cccc(-c2[nH]c(CNc3ccccc3F)nc2-c2ccc3ncnn3c2)n1
% of residual activity [15]: 38% | % of residual activity [16]: 28% | % of residual activity [17]: 11% | % of residual activity [18]: 41% | % of residual activity [19]: 21% | % of residual activity [20]: 43% | % of residual activity [21]: 47% | % of residual activity [22]: 7%

OCCn1cc(-c2ccc3c(c2)CCC3=NO)c(-c2ccncc2)n1
% of control [23]: 8%
